Patent US11311562B2, “Methods for reducing the incidence of oxidative stress using human milk oligosaccharides, vitamin c and anti-inflammatory agents” (priority 2010, dated 2022)

Assays:
[1] = test system: respiratory syncytial virus (RSV); format: cell-based; details: HMOs added at 1 mg/mL or 10 mg/mL; virus dose about 500-1,000 units/mL
[2] = test system: human parainfluenza virus (HPIV3); format: cell-based; details: HMOs added at 1 mg/mL or 10 mg/mL; virus dose about 500-1,000 units/mL
H1N1 influenza virus [3] = format: cell-based; details: for IC50 (mg HMO/mL) H1N1 Influenza: HMOs added at 1 mg/mL or 10 mg/mL, virus dose about 500-1,000 units/mL
H1N1 influenza virus [4] = format: cell-based; details: 10 mg/mL HMO; MDCK cells; FIG. 1
IP-10 = IP-10 in supernatants of HMO-pretreated, RSV-infected PBMCs; format: cell-based, human; details: for IP-10 in virus-infected variables: RSV MOI 0.1, 24 h pretreatment, both donors, FIGS. 3-6; for IP-10 in virus-infected variables / reducing inflammation caused by RSV: PBMCs; for reducing inflammation caused by RSV: pretreatment for 24 hours
Description: (§1) Specifically, either 3′SL or 6′SL is added, at concentrations of 0.1 mg/mL, 0.2 mg/mL, or 0.5 mg/mL to fresh peripheral blood mononuclear cells (PBMCs) and incubated at 37° C. in 5% CO2 to pretreat the cells for approximately 24 hours. LNnT is added, at concentrations of 0.1 mg/mL, 0.2 mg/mL, or 1 mg/mL to PBMCs and incubated at 37° C. in 5% CO2 to pretreat the cells for approximately 24 hours. Lactose is included as a carbohydrate control. Matched endotoxin unit concentration controls are included to allow differentiation of ingredient effects from inherent low levels of endotoxin. Some variables are then incubated with RSV at a multiplicity of infection (MOI) of 0.1 for approximately 1 hour at 37° C. in 5% in CO2. Uninfected control variables are incubated with medium for approximately 1 hour at 37° C. in 5% CO2. After approximately one hour, fresh medium alone, or fresh medium containing the appropriate concentration of 3′SL, 6′SL, LNnT, lactose, or endotoxin is added to the appropriate tubes and the cells are incubated for 48 hours at 37° C. in 5% CO2. Supernatants are collected at 24 and 48 hours post-infection. Cytokines are measured in supernatants for each variable at 24 and 48 hours to assess the effects of HMOs on the early immune response to RSV. Cytokines are measured using custom Bio-Plex Human cytokine kits from Bio-Rad.
IP-10 is a CXC chemokine that attracts, binds to and activates the CXCR3 receptor on natural killer cells and memory T cells. IP-10 is expressed by monocytes and a number of other cells, and is induced by interferon. A positive correlation exists between RSV clinical disease severity in children (as measured by: length of hospital stay, fever, and number of days supplemental O2 is required) and serum IP-10. Therefore, a decrease in IP-10 signals a decrease in severity of RSV disease experienced.

interleukin 10 (IL-10) = test: IL-10 in supernatants of HMO-pretreated PBMCs with or without RSV; format: cell-based, human; details: PBMCs in the presence or absence of RSV; FIGS. 7-10
Description: as §1

[5] = test system: monocyte-derived cytokines; test: monocyte-derived cytokines in supernatants of HMO-pretreated PBMCs with or without RSV; format: cell-based, human
Description: as §1

[6] = PBMCs in the presence or absence of the virus

SMILES	IC50 (mg HMO/mL) RSV [1]	IC50 (mg HMO/mL) HPIV3 [2]	IC50 (mg HMO/mL) H1N1 Influenza (H1N1 influenza virus [3])	inhibition of virus infectivity (H1N1 influenza virus [4])	IP-10 in virus-infected variables (IP-10)	IP-10 level compared with uninfected controls (IP-10; RSV-infected PBMCs)	downregulation of IP-10 compared with 3′SL (IP-10; RSV-infected PBMCs)	reducing inflammation caused by RSV (IP-10)	IL-10 concentration (interleukin 10 (IL-10))	production of monocyte-derived cytokines (immunomodulatory) ([5]; PBMCs in the absence of the virus)	anti-viral activity against H1N1 influenza virus (H1N1 influenza virus [3]; HMO at 1 mg/mL)	RSV-induced IP-10, Donor B (IP-10; RSV-infected PBMCs, Donor B, 0.1-0.5 mg/mL)	RSV-induced IP-10, Donor E (IP-10; RSV-infected PBMCs, Donor E, 0.1-0.5 mg/mL)	production of monocyte-derived cytokines (immunomodulatory) [5, 6]
CC(=O)N[C@H]1[C@H]([C@H](O)[C@H](O)CO)O[C@@](OC[C@H]2O[C@@H](O[C@H]3[C@H](O)[C@@H](O)[C@H](O)O[C@@H]3CO)[C@H](O)[C@@H](O)[C@H]2O)(C(=O)O)C[C@@H]1O [6′SL, 6′-sialyllactose]	>10 mg HMO/mL	>10 mg HMO/mL	~10 mg HMO/mL	approximately 60%	downregulates IP-10	reduce IP-10 to levels found in uninfected controls	more effective than 3′SL	effective	increases interleukin 10 (IL-10) concentration in a dose-dependent manner	induces and/or modifies the production of monocyte-derived cytokines such as IL-10, MIP-1β, Interferon-γ, IL-8, IL-1α, IL-1β, and IL-1ra				
CC(=O)N[C@H]1[C@H]([C@H](O)[C@H](O)CO)O[C@@](O[C@H]2[C@@H](O)[C@@H](CO)O[C@@H](O[C@H]3[C@H](O)[C@@H](O)C(O)O[C@@H]3CO)[C@@H]2O)(C(=O)O)C[C@@H]1O (stereo partly drawn) [3′SL, 3′-sialyllactose]	>10 mg HMO/mL	>10 mg HMO/mL	~5 mg HMO/mL		dampen RSV-induced IP-10			effective			inhibited	not effective	downregulates RSV-induced IP-10	induces and/or modifies the production of monocyte-derived cytokines such as MIP-1β, Interferon-γ, IL-8, and IL-1ra
CC(=O)N[C@H]1[C@H](O[C@H]2[C@@H](O)[C@@H](CO)O[C@@H](O[C@H]3[C@H](O)[C@@H](O)C(O)O[C@@H]3CO)[C@@H]2O)O[C@H](CO)[C@@H](O[C@@H]2O[C@H](CO)[C@H](O)[C@H](O)[C@H]2O)[C@@H]1O (mixture of isomers) [LNnT, lacto-N-neotetraose]	>10 mg HMO/mL		>10 mg HMO/mL		clearly downregulates IP-10	reduce IP-10 to levels found in uninfected controls	more effective than 3′SL	effective	increases IL-10 concentration in a dose-dependent manner					induces and/or modifies the production of monocyte-derived cytokines such as IL-10, MIP-1β, Interferon-γ, IL-8, IL-1α, IL-1β, and IL-1ra
